From ChEMBL document CHEMBL4420076, “Amylin and calcitonin receptor agonist” (2017)
Numbered stars: 1 amine (or outer) side, 2 acyl side, 3 side chain; on linkers, the order of the positions; unused ones are H or OH. Side chains are listed from the residue outwards. Peptide text beside a SMILES is read from it. * marks the point of attachment. C20 diacid = O=C(O)CCCCCCCCCCCCCCCCCCC(=O)*; γGlu = O=C(O)[C@H](CCC(=O)[*:2])N[*:1]; AEEA = NCCOCCOCC(=O)O

How the values were obtained:
[1] = biological target: T1, Amylin receptor AMY3; CALCR/RAMP3 (Homo sapiens, UniProt O60896+P30988); experiment: Agonist activity at human amylin receptor expressed in BHK570 cells co-expressing RAMP3 assessed as increase in intracellular cAMP concentration incubated for 3 hrs in presence of 10% FBS by CRE luciferase reporter gene assay; type: functional, cell-based
T1 sequence (P30988 whole entry): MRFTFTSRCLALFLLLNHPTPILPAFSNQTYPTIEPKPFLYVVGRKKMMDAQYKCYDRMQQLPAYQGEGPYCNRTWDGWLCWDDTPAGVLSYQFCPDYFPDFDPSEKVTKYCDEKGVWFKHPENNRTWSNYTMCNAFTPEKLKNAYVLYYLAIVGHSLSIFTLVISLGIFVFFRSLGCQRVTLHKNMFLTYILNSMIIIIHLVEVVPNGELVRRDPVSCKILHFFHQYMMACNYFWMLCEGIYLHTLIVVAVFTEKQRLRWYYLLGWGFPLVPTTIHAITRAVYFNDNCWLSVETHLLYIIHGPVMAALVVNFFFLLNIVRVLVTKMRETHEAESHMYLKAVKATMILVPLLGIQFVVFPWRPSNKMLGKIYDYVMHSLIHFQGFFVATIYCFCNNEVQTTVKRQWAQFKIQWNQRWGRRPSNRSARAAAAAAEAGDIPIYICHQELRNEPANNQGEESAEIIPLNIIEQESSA
T1 sequence (O60896 whole entry): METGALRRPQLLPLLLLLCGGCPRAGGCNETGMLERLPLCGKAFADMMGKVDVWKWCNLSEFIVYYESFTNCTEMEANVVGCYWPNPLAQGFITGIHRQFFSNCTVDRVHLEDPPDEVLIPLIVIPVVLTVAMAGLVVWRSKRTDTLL

[2] = Stability in pH 7.5 buffer assessed as compound recovery at 1 uM by Thioflavin T based fluorescence assay; type: physicochemical; conditions: read-out: Drug recovery
[3] = Solubility in 100 mM bistrispropane buffer at pH 7.5 incubated for 18 hrs by UPLC analysis; type: physicochemical
Calcitonin receptor [4] = biological target: T2, Calcitonin receptor (Homo sapiens, UniProt P30988); experiment: Displacement of [125I]-labeled human calcitonin from human calcitonin receptor expressed in BHK tkts13 cell membranes incubated for 1 hr by scintillation proximity assay
T2 sequence (P30988 whole entry): T1 sequence (P30988 whole entry)

[5] = biological target: T3, Amylin receptor AMY3; CALCR/RAMP3 (Rattus norvegicus, UniProt P32214+Q9JJ73); experiment: Displacement of [125I]-labeled rat amylin from rat amylin receptor expressed in BHK tkts13 cell membranes co-expressing RAMP3 incubated for 120 mins by scintillation proximity assay
T3 sequence (P32214 whole entry): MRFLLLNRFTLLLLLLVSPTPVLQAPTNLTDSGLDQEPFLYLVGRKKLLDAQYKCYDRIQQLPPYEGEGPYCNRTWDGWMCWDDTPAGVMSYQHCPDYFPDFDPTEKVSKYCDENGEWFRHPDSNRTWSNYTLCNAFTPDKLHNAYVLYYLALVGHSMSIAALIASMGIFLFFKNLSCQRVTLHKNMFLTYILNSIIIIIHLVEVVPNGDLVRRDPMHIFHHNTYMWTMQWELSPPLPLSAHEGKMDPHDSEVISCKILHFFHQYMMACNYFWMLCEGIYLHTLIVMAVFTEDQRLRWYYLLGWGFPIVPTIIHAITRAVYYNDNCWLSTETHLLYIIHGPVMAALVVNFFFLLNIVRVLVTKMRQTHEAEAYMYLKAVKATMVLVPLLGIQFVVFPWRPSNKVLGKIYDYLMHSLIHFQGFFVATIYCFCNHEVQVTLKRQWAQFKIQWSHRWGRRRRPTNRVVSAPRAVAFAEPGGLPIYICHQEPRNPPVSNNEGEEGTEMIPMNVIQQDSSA
T3 sequence (Q9JJ73 whole entry): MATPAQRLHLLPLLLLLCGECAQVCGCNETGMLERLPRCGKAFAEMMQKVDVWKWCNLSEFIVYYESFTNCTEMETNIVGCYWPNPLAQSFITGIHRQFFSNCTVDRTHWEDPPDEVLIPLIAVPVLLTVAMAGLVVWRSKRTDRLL

[6] = Solubility in 100 mM bistrispropane buffer at pH 8.0 incubated for 18 hrs by UPLC analysis; type: physicochemical
[7] = Solubility in 100 mM bistrispropane buffer at pH 6.0 incubated for 18 hrs by UPLC analysis; type: physicochemical
Calcitonin receptor [8] = biological target: T2, Calcitonin receptor; experiment: Agonist activity at human calcitonin receptor expressed in BHK570 cells assessed as increase in intracellular cAMP concentration incubated for 3 hrs in absence of albumin by CRE luciferase reporter gene assay; type: functional, cell-based
[9] = Solubility in 100 mM glycylglycine buffer at pH 4.0 incubated for 18 hrs by UPLC analysis; type: physicochemical
[10] = Solubility in 100 mM bistrispropane buffer at pH 6.5 incubated for 18 hrs by UPLC analysis; type: physicochemical
[11] = Solubility in 100 mM glycylglycine buffer at pH 5.0 incubated for 18 hrs by UPLC analysis; type: physicochemical
[12] = Solubility in 100 mM glycylglycine buffer at pH 3.0 incubated for 18 hrs by UPLC analysis; type: physicochemical
[13] = Solubility in 100 mM bistrispropane buffer at pH 7.0 incubated for 18 hrs by UPLC analysis; type: physicochemical
[14] = Stability in pH 7.5 buffer assessed as lag time for fibril formation at 1 uM by Thioflavin T based fluorescence assay; type: physicochemical; conditions: pH 7.5, 1 µM
Calcitonin receptor [15] = biological target: T2, Calcitonin receptor; experiment: Agonist activity at human calcitonin receptor expressed in BHK570 cells assessed as increase in intracellular cAMP concentration incubated for 3 hrs in presence of 10% FBS by CRE luciferase reporter gene assay; type: functional, cell-based
[16] = biological target: T1, Amylin receptor AMY3; CALCR/RAMP3; experiment: Agonist activity at human amylin receptor expressed in BHK570 cells co-expressing RAMP3 assessed as increase in intracellular cAMP concentration incubated for 3 hrs in absence of albumin by CRE luciferase reporter gene assay; type: functional, cell-based
Rattus norvegicus [17] = experiment: Reduction in food intake in Sprague-Dawley rat at 3 nmol/kg measured 0 to 24 hrs post dose relative to control; type: functional; set-up: scale not given: the % may be the effect or the level left
Rattus norvegicus [18] = experiment: Reduction in food intake in Sprague-Dawley rat at 3 nmol/kg measured 24 to 48 hrs post dose relative to control; type: functional; set-up: scale not given: the % may be the effect or the level left

Row | EC50 [1] [nM] | remaining at 1 µM [2] [%] | solubility at 18 h [3] [µM] | IC50 (Calcitonin receptor [4]) [nM] | IC50 [5] [nM] | solubility at 18 h [6] [µM] | solubility at 18 h [7] [µM] | EC50 (Calcitonin receptor [8]) [nM] | solubility at 18 h [9] [µM] | solubility at 18 h [10] [µM] | solubility at 18 h [11] [µM] | solubility at 18 h [12] [µM] | solubility at 18 h [13] [µM] | Time [14] [h] | EC50 (Calcitonin receptor [15]) [nM] | EC50 [16] [nM] | SMILES | Activity (Rattus norvegicus [17]) [%] | Activity (Rattus norvegicus [18]) [%]
1 | 0.049 | 100 | ≥ 200 | 0.085 | 0.455 | ≥ 200 | ≥ 200 | 0.019 | ≥ 200 | ≥ 200 | ≥ 200 | ≥ 200 | ≥ 200 | > 45 | 0.028 |  | CC(C)C[C@H](NC(=O)[C@H](C)NC(=O)[C@H](C)NC(=O)[C@@H](NC(=O)[C@H](CO)NC(=O)[C@H](CC(C)C)NC(=O)[C@H](CCC(=O)O)NC(=O)[C@H](CO)NC(=O)[C@H](C)N)[C@@H](C)O)C(=O)NCC(=O)N[C@@H](CCCNC(=N)N)C(=O)N[C@@H](CC(C)C)C(=O)N[C@@H](CO)C(=O)N[C@@H](C)C(=O)N[C@@H](CCC(=O)O)C(=O)N[C@@H](CC(C)C)C(=O)N[C@@H](Cc1cnc[nH]1)C(=O)N[C@@H](CCCCNC(=O)CC[C@H](NC(=O)CCCCCCCCCCCCCCCCCCC(=O)O)C(=O)O)C(=O)N[C@@H](CC(C)C)C(=O)N[C@@H](C)C(=O)N[C@H](C(=O)N[C@@H](CC(C)C)C(=O)N1CCC[C@H]1C(=O)N[C@@H](CCCNC(=N)N)C(=O)N[C@H](C(=O)N[C@@H](CCC(=O)O)C(=O)N[C@H](C(=O)NCC(=O)N[C@@H](CO)C(=O)NCC(=O)N[C@@H](CO)C(=O)N1CCC[C@H]1C(N)=O)[C@@H](C)O)[C@@H](C)O)[C@@H](C)O (H-ASELSTAALGRLSAELHK([γGlu-C20 diacid])LATLPRTETGSGSP-NH2) |  | 
2 | 0.073 | 100 | ≥ 200 | 0.085 | 0.146 | ≥ 200 | ≥ 200 | 0.018 | ≥ 200 | ≥ 200 | ≥ 200 | ≥ 200 | ≥ 200 | > 45 | 0.03 | 0.027 | CC(C)C[C@H](NC(=O)[C@H](C)NC(=O)[C@H](C)NC(=O)[C@@H](NC(=O)[C@H](CO)NC(=O)[C@H](CC(C)C)NC(=O)[C@H](CCC(=O)O)NC(=O)[C@H](CO)NC(=O)[C@H](C)NC(=O)COCCOCCNC(=O)CC[C@H](NC(=O)CCCCCCCCCCCCCCCCCCC(=O)O)C(=O)O)[C@@H](C)O)C(=O)NCC(=O)N[C@@H](CCCNC(=N)N)C(=O)N[C@@H](CC(C)C)C(=O)N[C@@H](CO)C(=O)N[C@@H](C)C(=O)N[C@@H](CCC(=O)O)C(=O)N[C@@H](CC(C)C)C(=O)N[C@@H](Cc1cnc[nH]1)C(=O)N[C@@H](CCC(=O)O)C(=O)N[C@@H](CC(C)C)C(=O)N[C@@H](C)C(=O)N[C@H](C(=O)N[C@@H](CC(C)C)C(=O)N1CCC[C@H]1C(=O)N[C@@H](CCCNC(=N)N)C(=O)N[C@H](C(=O)N[C@@H](CCC(=O)O)C(=O)N[C@H](C(=O)NCC(=O)N[C@@H](CO)C(=O)NCC(=O)N[C@@H](CO)C(=O)N1CCC[C@H]1C(N)=O)[C@@H](C)O)[C@@H](C)O)[C@@H](C)O ({C20 diacid-γGlu-AEEA}-ASELSTAALGRLSAELHELATLPRTETGSGSP-NH2) |  | 
3 | 0.062 | 100 | ≥ 200 | 0.113 | 0.029 | ≥ 200 | ≥ 200 | 0.037 | ≥ 200 | ≥ 200 |  | ≥ 200 | ≥ 200 | > 45 | 0.049 | 0.046 | CC(C)C[C@H](NC(=O)[C@H](C)NC(=O)[C@H](C)NC(=O)[C@@H](NC(=O)[C@H](CO)NC(=O)[C@H](CC(C)C)NC(=O)[C@H](CCC(=O)O)NC(=O)[C@H](CO)NC(=O)[C@H](C)NC(=O)CC[C@H](NC(=O)CCCCCCCCCCCCCCCCCCC(=O)O)C(=O)O)[C@@H](C)O)C(=O)NCC(=O)N[C@@H](CCCNC(=N)N)C(=O)N[C@@H](CC(C)C)C(=O)N[C@@H](CO)C(=O)N[C@@H](C)C(=O)N[C@@H](CCC(=O)O)C(=O)N[C@@H](CC(C)C)C(=O)N[C@@H](Cc1cnc[nH]1)C(=O)N[C@@H](CCC(=O)O)C(=O)N[C@@H](CC(C)C)C(=O)N[C@@H](C)C(=O)N[C@H](C(=O)N[C@@H](CC(C)C)C(=O)N1CCC[C@H]1C(=O)N[C@@H](CCCNC(=N)N)C(=O)N[C@H](C(=O)N[C@@H](CCC(=O)O)C(=O)N[C@H](C(=O)NCC(=O)N[C@@H](CO)C(=O)NCC(=O)N[C@@H](CO)C(=O)N[C@@H](Cc1ccc(O)cc1)C(N)=O)[C@@H](C)O)[C@@H](C)O)[C@@H](C)O ({C20 diacid-γGlu}-ASELSTAALGRLSAELHELATLPRTETGSGSY-NH2) |  | 
4 | 0.154 |  | ≥ 200 | 0.651 | 0.385 | ≥ 200 | ≥ 200 | 0.015 |  | ≥ 200 | ≥ 200 | ≥ 200 | ≥ 200 |  | 0.062 | 0.018 | CC(C)C[C@H](NC(=O)CNC(=O)[C@H](CO)NC(=O)[C@H](C)NC(=O)CC[C@H](NC(=O)CCCCCCCCCCCCCCCCCCC(=O)O)C(=O)O)C(=O)N[C@@H](CO)C(=O)N[C@H](C(=O)N[C@@H](C)C(=O)N[C@H](C(=O)N[C@@H](CC(C)C)C(=O)NCC(=O)N[C@@H](CCCCN)C(=O)N[C@@H](CC(C)C)C(=O)N[C@@H](CO)C(=O)N[C@@H](CCC(N)=O)C(=O)N[C@@H](CCC(=O)O)C(=O)N[C@@H](CC(C)C)C(=O)N[C@@H](Cc1cnc[nH]1)C(=O)N[C@@H](CCC(=O)O)C(=O)N[C@@H](CC(C)C)C(=O)N[C@@H](CCC(N)=O)C(=O)N[C@H](C(=O)N[C@@H](Cc1ccc(O)cc1)C(=O)N1CCC[C@H]1C(=O)N1CCC[C@H]1C(=O)N[C@H](C(=O)N[C@@H](CCC(=O)O)C(=O)N[C@H](C(=O)NCC(=O)N[C@@H](CO)C(=O)NCC(=O)N[C@H](C(=O)N[C@@H](Cc1ccc(O)cc1)C(N)=O)[C@@H](C)O)[C@@H](C)O)[C@@H](C)O)[C@@H](C)O)C(C)C)[C@@H](C)O ({C20 diacid-γGlu}-ASGLSTAVLGKLSQELHELQTYPPTETGSGTY-NH2) | 8 | 9
